Data: US20120189603A1, “STORAGE-STABLE, SYNERGISTIC MICROBICIDAL CONCENTRATES CONTAINING AN ISOTHIAZOLONE, AN AMINE AND AN OXIDIZING AGENT” (L"AIR LIQUIDE, SOCIETE ANONYME POUR L'ETUDE ET L' …, priority 2009, published 2012)

Experiments:
Assay in all cases: Germ-count reduction test, sterile town water, pH adjusted to 8.2
Set-up in all cases: key: −: growth-free; +: slight growth; ++: moderate growth; +++: considerable growth; ++++: massive growth; L: lawn-like growth
Settings in all cases: +0.01% 2
[1] = tested on: P. aeruginosa; assay type: cell-based, Pseudomonas aeruginosa
Protocol: (§1) The pH was adjusted to 8.2 with HCl.
(§2) 24-Hour CSL cultures are prepared from 24-hour CS slant agar cultures of Staphylococcus aureus/Pseudomonas aeruginosa. Incubation takes place at 37° C.
(§3) The titre of the bacteria suspensions is ca. 10^9 CFU/ml.
(§4) A dilution series of four concentrations is prepared from the active ingredient to be tested and poured into 10 ml sterile tubes. One dilution series is required per test germ. Each tube is inoculated with 0.1 ml of the individual germ suspensions.
(§5) […] The bacteria are streaked on CSA and incubated for 48 hours at 37° C. (Pseudomonas aeruginosa and Staphylococcus aureus) or 25° C. (Pseudomonas fluorescens/Pseudomonas putida). The fungi are streaked on Sabouraud agar and incubated for 48 hours at 37° C. (Candida albicans) and 25° C. (Aspergillus niger).

[2] = tested on: P. funiculosum; assay type: cell-based
[3] = tested on: S. aureus; assay type: cell-based, Staphylococcus aureus
Protocol: as §1, §2, §3, §4, §5

[4] = tested on: A. niger; assay type: cell-based, Aspergillus niger
Protocol: as §1
A 7-14-day-old Aspergillus niger culture on Sabouraud agar is elutriated with 5 ml of NaCl, filtered through a glass filter containing glass wool and topped up to 200 ml. This suspension has a titre of ca. 10^7 CFU/ml.
as §4, §5

[5] = tested on: E. coli; assay type: cell-based
[6] = tested on: C. albicans; assay type: cell-based, Candida albicans
Protocol: as §1
A 4-day-old Candida albicans culture (CSA+grape sugar) is elutriated with 5 ml of physiological sodium chloride solution and adjusted in accordance with a barium sulphate standard (see DVG Guideline). The titre of the Candida albicans suspension is 10^8 CFU/ml.
as §4, §5

Measured: growth

CCCCCCCCCCCCN(CCCN)CCCN [compound 2, bis(aminopropyl)dodecylamine]
−: [1]; 6 h | [1]; 24 h | [2]; 1 h | [2]; 3 h | [2]; 6 h | [2]; 24 h | [3]; 1 h | [3]; 3 h | [3]; 6 h | [3]; 24 h | [4]; 1 h | [4]; 3 h | [4]; 6 h | [4]; 24 h | [5]; 3 h | [5]; 6 h | [5]; 24 h | [6]; 1 h | [6]; 3 h | [6]; 6 h | [6]; 24 h
+: [1]; 1 h | [1]; 3 h | [5]; 1 h
